{"source": "patent US5217956A", "about": "“Composition and treatment with biologically active peptides and certain anions” (priority 1991, dated 1993)", "key": {"E. cloacae": {"test_system": "E. cloacae", "assay": "Killing of E. cloacae: viable organisms on plating after incubation in TSB", "assay_type": "cell-based, Enterobacter cloacae", "details": "for CFU / EOP (% viable): 15 min at 37° C.", "description": "LEGEND: Organisms were incubated in a volume of 1 ml in either trypticase soy broth alone or containing substances noted for 15 min at 37° C. An aliquot was then diluted and plated to determine number of viable organisms."}, "Pseudomonas aeruginosa": {"test_system": "Pseudomonas aeruginosa", "assay": "Minimal inhibitory concentration in trypticase soy broth versus Pseudomonas aeruginosa", "assay_type": "cell-based", "description": "(§1) Approximately 1,000 bacteria were seeded into about 200 ul of trypticase soy broth. Either magainin 2 carboxy terminal amide, PGLa, or ALSKALSK ALSKALSKALSKALSK (Z-44) were added in increasing concentrations in the absence (Panel A) or presence (Panel B) of 50 mM NaF."}, "Enterobacter cloacae": {"test_system": "Enterobacter cloacae", "assay_type": "cell-based", "description": "as §1"}}, "note": "No end group written: not given here.", "data": [{"molecule": "[F-].[Na+]", "note": "[NaF, sodium fluoride]", "values": [{"measurement": "CFU", "setting": "E. cloacae; NaF 25 mM alone", "value": "10^7"}, {"measurement": "EOP (% viable)", "setting": "E. cloacae; NaF 25 mM alone", "value": 100, "unit": "%"}]}, {"molecule": "GIGKFLHSAKKFGKAFVGEIMNS-NH2 [MGN2]", "values": [{"measurement": "MINIMAL INHIBITORY CONCENTRATION", "setting": "Pseudomonas aeruginosa; Panel A: absence of NaF", "value": "250 to 500", "unit": "µg/mL"}, {"measurement": "MINIMAL INHIBITORY CONCENTRATION", "setting": "Pseudomonas aeruginosa; Panel B: +50 mM NaF", "value": "60 to 125", "unit": "µg/mL"}, {"measurement": "bacterial killing", "setting": "E. cloacae; 60 ug/ml MGN2 + 50 mM NaF, 10^7 E. cloacae in 1 ml TSB", "value": "all bacteria are killed"}, {"measurement": "potentiation of effective killing power by addition of fluoride", "setting": "E. cloacae; 60 ug/ml MGN2 with versus without NaF", "value": "over 1 million"}, {"measurement": "CFU", "setting": "E. cloacae; peptide 60 ug/ml + NaF 25 mM", "value": 0}, {"measurement": "EOP (% viable)", "setting": "E. cloacae; peptide 60 ug/ml + NaF 25 mM", "value": 0, "unit": "%"}, {"measurement": "CFU", "setting": "E. cloacae; peptide 60 ug/ml, no NaF, 10^7 organisms in 1 ml TSB", "value": "about 10^6"}, {"measurement": "CFU", "setting": "E. cloacae; peptide 60 ug/ml, no NaF, 10^7 organisms in 1 ml TSB, listed as MGN2 (NH2)", "value": "10^6"}, {"measurement": "EOP (% viable)", "setting": "E. cloacae; peptide 60 ug/ml, no NaF", "value": 90, "unit": "%"}]}, {"molecule": "GMASKAGAIAGKIAKVALKAL-NH2 [PGLa]", "values": [{"measurement": "MINIMAL INHIBITORY CONCENTRATION", "setting": "Enterobacter cloacae", "value": "> 250", "unit": "µg/mL"}]}]}
